Source: paper PMC13538172, “Zonisamide nanodiamonds for brain targeting: A comprehensive study utilising in silico, in vitro, in vivo, and molecular investigation for successful nose-to-brain delivery for epilepsy management” (Drug Delivery and Translational Research, 2025)

Experiments:
LncRNA PVT-1 = test: Hippocampal LncRNA PVT-1 expression by quantitative RT-PCR in TLE rats; type: in vivo; conditions: relative quantitation 2-∆∆Ct; TLE control 5.7 folds of normal rats
Method: Temporal lobe epilepsy (TLE) was induced in rats using the pilocarpine model according to the method of […] et al.. Prior to the experiment, rats were housed in plastic cages at October University for Modern Science and Arts under controlled environmental conditions (temperatures of 25°±3°C and 50% humidity) with free access to water and softened standard pellet chow. The rats were injected with pilocarpine (300 mg/kg; i.p.) to induce status epilepticus (SE). Atropine (1 mg/kg; i.p.) was injected 30 minutes before pilocarpine injection to antagonize the peripheral muscarinic activity. SE was defined using the modified Racine scale by observing seizure severity categorized as stages 4 and 5. […] For quantitative RT-PCR analysis of miR-199, Sirtuin 1 (Sirt-1) and long non-coding RNA of plasmacytoma variant translocation1 (LncRNA PVT-1), RNA was isolated from the brain hippocampus tissue with direct-zol RNA Miniprep Plus (CAT no. R2072) and reverse-transcribed into cDNA with the reverse transcriptase (CAT no. 12594100) according to the manufacturer instructions. […] Quantitative reverse transcriptase PCR was performed using a Power SYBR Green PCR Master Mix (CFX96 Instrument; Bio-Rad, USA). The relative quantitation (RQ) of each target gene is quantified according to the 2-ΔΔCt method calculation.

[1] = set-up: method as in PMID 10837713; conditions: following systemic absorption; cited from earlier work
[2] = test system: experimentally induced TLE in rats; test: EEG and behavioural seizures in pilocarpine-induced temporal lobe epilepsy (TLE); type: in vivo, adult male Wistar albino rats; conditions: intranasal 16 mg/kg/day of ZNS for 7 days
Method: (§1) Temporal lobe epilepsy (TLE) was induced in rats using the pilocarpine model according to the method of Arshad et al.. Prior to the experiment, rats were housed in plastic cages at October University for Modern Science and Arts under controlled environmental conditions (temperatures of 25°±3°C and 50% humidity) with free access to water and softened standard pellet chow. The rats were injected with pilocarpine (300 mg/kg; i.p.) to induce status epilepticus (SE). Atropine (1 mg/kg; i.p.) was injected 30 minutes before pilocarpine injection to antagonize the peripheral muscarinic activity. SE was defined using the modified Racine scale by observing seizure severity categorized as stages 4 and 5. […] The SE seizures were left to last for 3 hours to induce hippocampus damage, after which diazepam (10 mg/kg; i.p.) was injected to attenuate the seizures. Lubricant ophthalmic gel was applied with a cotton swab to each eye to prevent the corneas from drying out during the seizures. The rats were hydrated with sterile Ringer's lactate injections (1 mL, i.p.) for 3 days post-SE induction. Animal welfare assessments were conducted multiple times per day for several days after the induction of SE. The Pilocarpine-inducted rats began to develop spontaneous recurrent seizures (SRS) as a characteristic of TLE within 3 weeks, after which the treatments were injected for 7 days, and the in vivo pharmacodynamic investigation was conducted. […]
At the end of the experiment, SRS was monitored using a video recorder (6 hours/day) and scored according to the Racine scale. In addition, the brain activity was recorded using an electroencephalogram (EEG, powerlab module, which consists of Power-lab/8sp and Animal Bio-Amplifier, Australia). […]

[3] = test system: matrix metallopeptidase-9 (MMP-9); test: Serum MMP-9 by ELISA in TLE rats; type: in vivo; conditions: compared to the TLE control rats; intranasal, 7 days
Method: as §1, with “induction.” for “induction. Animal welfare assessments were conducted multiple times per day for several days after the induction of SE. The Pilocarpine-inducted rats began to develop spontaneous recurrent seizures (SRS) as a characteristic of TLE within 3 weeks, after which the treatments were injected for 7 days, and the in vivo pharmacodynamic investigation was conducted.”
The serum levels of neuron-specific enolase (NSE), matrix metallopeptidase-9 (MMP-9), neurofilament light polypeptide (NEFL), and brain-derived neurotrophic factor (BDNF) were measured by ELISA technique using the following standard kits CAT no. […]

NS(=O)(=O)Cc1noc2ccccc12 [ZNS, Zonisamide]
hippocampal level of LncRNA-PVT1 (LncRNA PVT-1): 3.4 folds
Oldendorf Brain Uptake Index [1]: 28%
maximum spike amplitude during the SRS ([2]; n = 8): 0.4 ± 0.1 mV
mean duration of single SRS (epileptogenic ictal discharge in EEG) ([2]; n = 8): 96.5 ± 2.9 s
incidence of motor seizures per 6 h ([2]; video recording 6 hours per day): 3.5 ± 0.5
decrease in serum level of MMP-9 [3]: 40.1%
